From patent US12077483B2, “Modified amine lipids” (Intellia Therapeutics, Inc., priority 2018, dated 2024)
Several values for one entry are separate records, joined by “and”; a condition that tells them apart may be missing. Equal entries are not always repeated.

Experiments:
mouse TTR = assay: Serum TTR ELISA in mice after LNP delivery; assay type: in vivo
Procedure, shortened: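 Female CD-1 mice received LNP at 0.1 mpk unless noted; serum was collected 6 or 7 days later. Total serum TTR was measured by mouse prealbumin ELISA at 10,000- and/or 2,500-fold dilution and is expressed as a percentage of vehicle control.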

[1] = LNP average particle size and polydispersity by dynamic light scattering; assay type: physicochemical
Procedure, shortened: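 LNPs were diluted in PBS to a count rate of about 200-400 kcps and measured by DLS on a Zetasizer. Size is the intensity-weighted Z-average diameter, reported with number-average diameter, and the polydispersity index describes the spread of sizes around the mean.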

[2] = pKa of amine lipid by TNS fluorescence; assay type: physicochemical; settings: probe TNS (6-(p-toluidino)-2-naphthalenesulfonic acid sodium salt), unformulated amine lipid in ethanol, sodium phosphate buffers -9.0
Procedure, shortened: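 Unformulated amine lipid, about 100 μM final, in 0.1 M sodium phosphate buffers spanning pH 4.5–9.0 with TNS. Fluorescence read at ex 321/em 448 nm; normalized data fitted sigmoidally to give pKa.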

[3] = RNA encapsulation efficiency of LNP (Ribogreen fluorescence assay); assay type: physicochemical
Procedure, shortened: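 LNP samples diluted in 1× TE with or without 0.2% Triton-X 100 for total or free RNA, stained ~10 min at room temperature in the dark with RiboGreen; fluorescence ex 488/em 525 nm against RNA standard curves. Encapsulation efficiency = (Total RNA−Free RNA)/Total RNA.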

[4] = Table 3, guide G282, CD-1 female mice, 0.1 mpk i.v., Exp. 1, 8, 9, 10
[5] = Table 3, guide G282, CD-1 female mice, 0.1 mpk i.v., percentage of vehicle control (TSS)
[6] = mouse serum, relative to TSS control of same experiment, dose 0.03 mpk
[7] = mouse serum, relative to TSS control of same experiment, dose 0.1 mpk
[8] = LNP with the compound as amine lipid, Expt. 8, composition ratio (mol %) 50/9/38/3 for Cmpnd 49, 50/10/38.5/1.5 for the others
[9] = Table 4, LNP with G00282 sgRNA:Cas9 mRNA 1:1 w/w, N/P 6.0
[10] = LNP with the compound as amine lipid, Expt. 4, composition ratio (mol %) 50/9/38/3 for Cmpnd 49, 50/10/38.5/1.5 for the others
[11] = LNP with the compound as amine lipid, Expt. 2, composition ratio (mol %) 50/9/39.5/3 for Cmpnd 49, 50/9/39.5/1.5 for the others
[12] = LNP with the compound as amine lipid, Expt. 7, composition ratio (mol %) 50/9/38/3 for Cmpnd 49, 50/10/38.5/1.5 for the others
[13] = Table 10, LNP with G00534 sgRNA:Cas9 mRNA 1:2 w/w
[14] = LNP with the compound as amine lipid, Expt. 1, composition ratio (mol %) 50/9/38/3 for Cmpnd 49, 50/10/38.5/1.5 for the others
[15] = LNP with the compound as amine lipid, Expt. 3, composition ratio (mol %) 50/9/38/3 for Cmpnd 49, 50/10/38.5/1.5 for the others
[16] = LNP with the compound as amine lipid, Expt. 5, composition ratio (mol %) 50/10/38.5/1.5
[17] = LNP with the compound as amine lipid, Expt. 6, composition ratio (mol %) 50/9/38/3 for Cmpnd 49, 50/10/38.5/1.5 for the others
[18] = LNP with the compound as amine lipid, Expt. 9, composition ratio (mol %) 50/9/38/3 for Cmpnd 49, 50/10/38.5/1.5 for the others
[19] = LNP with the compound as amine lipid, Expt. 10, composition ratio (mol %) 50/9/38/3 for Cmpnd 49, 50/10/38.5/1.5 for the others
[20] = Table 6, LNP with G00282 sgRNA:Cas9 mRNA 1:1 w/w
[21] = Table 13, LNP sgRNA:Cas9 mRNA 1:2 w/w, N/P 6.0

CCCCC/C=C\C/C=C\CCCCCCCC(=O)OCC(COC(=O)CCCCCCC/C=C\C/C=C\CCCCC)OC(=O)CCC(CCCCCCCCCCCC)OC(=O)NCC1CCCN1C (centres unmarked) [Compound 9, 2-((4-((((1-methylpyrrolidin-2-yl)methyl)carbamoyl)oxy)hexadecanoyl)oxy) propane-1,3-diyl (9Z,9′Z,12Z,12′Z)-bis(octadeca-9,12-dienoate)]
Serum TTR (mouse TTR; [4]): 339 µg/mL
Serum TTR % TSS (mouse TTR; [5]): 38% TSS
Serum TTR % TSS (mouse TTR; [6]): 114.02 % TSS
Serum TTR % TSS (mouse TTR; [7]): 103.19 % TSS
Num Ave Size (nm) [1, 8]: 48.82 nm
PDI [1, 8]: 0.074
Z-Ave Size (nm) [1, 8]: 64.83 nm
Num Ave Size (nm) [1, 9]: 59.99 nm
PDI [1, 9]: 0.033
Z-Ave Size (nm) [1, 9]: 74.83 nm
pKa [2]: 6.32
Encapsulation (%) [3, 8]: 98%
Encapsulation (%) [3, 9]: 97%

CCCCC/C=C\C/C=C\CCCCCCCC(=O)OCC(COC(=O)CCCCCCC/C=C\C/C=C\CCCCC)OC(=O)CCC(CCCCCC)OC(=O)NCCN(C)CC (centres unmarked) [Compound 40, 2-((4-(((2-(ethyl(methyl)amino)ethyl)carbamoyl)oxy)decanoyl)oxy)propane-1,3-diyl (9Z,9′Z,12Z,12′Z)-bis(octadeca-9,12-dienoate)]
Serum TTR (mouse TTR; [4]): 251 µg/mL
Serum TTR % TSS (mouse TTR; [5]): 31% TSS
Serum TTR % TSS (mouse TTR; [6]): 77% TSS
Serum TTR % TSS (mouse TTR; [7]): 9% TSS
Num Ave Size (nm) [1, 10]: 81.51 nm
PDI [1, 10]: 0.027
Z-Ave Size (nm) [1, 10]: 101.10 nm
pKa [2]: 6.34
Encapsulation (%) [3, 10]: 97%

CCCCC/C=C\C/C=C\CCCCCCCC(=O)OCC(COC(=O)CCCCCCC/C=C\C/C=C\CCCCC)OC(=O)CCC(CCCCCC)OC(=O)OCCCN1CCCC1 (centres unmarked) [Compound 45, 2-((4-(((3-(pyrrolidin-1-yl)propoxy)carbonyl)oxy)decanoyl)oxy)propane-1,3-diyl (9Z,9′Z,12Z,12′Z)-bis(octadeca-9,12-dienoate)]
Serum TTR % TSS (mouse TTR; mouse serum, relative to TSS control of same experiment, dose 0.03 mpk, 0.03 mg/kg): 78.39 % TSS and 43.435 % TSS
Serum TTR % TSS (mouse TTR; [7]): 10.09 % TSS
Num Ave Size (nm) [1, 11]: 85.54 nm
PDI [1, 11]: 0.021
Z-Ave Size (nm) [1, 11]: 102.70 nm
Num Ave Size (nm) [1, 12]: 77.92 nm
PDI [1, 12]: 0.012
Z-Ave Size (nm) [1, 12]: 95.26 nm
Num Avg Size (nm) [1, 13]: 83.48 nm
PDI [1, 13]: 0.052
Z-Avg Size (nm) [1, 13]: 101.00 nm
pKa [2]: 5.79
Encapsulation (%) [3, 11]: 99%
Encapsulation (%) [3, 12]: 98%
Encapsulation (%) [3, 13]: 95%

CCCCC/C=C\C/C=C\CCCCCCCC(=O)OCC(COC(=O)CCCCCCC/C=C\C/C=C\CCCCC)OC(=O)CCC(CCCCCCCCCC)OC(=O)NCCN(C)CC (centres unmarked) [Compound 39, 2-((4-(((2-(ethyl(methyl)amino)ethyl)carbamoyl)oxy)tetradecanoyl)oxy)propane-1,3-diyl (9Z,9′Z,12Z,12′Z)-bis(octadeca-9,12-dienoate)]
Serum TTR (mouse TTR; [4]): 335 µg/mL
Serum TTR % TSS (mouse TTR; [5]): 41% TSS
Serum TTR % TSS (mouse TTR; [6]): 41% TSS
Serum TTR % TSS (mouse TTR; [7]): 6% TSS
Num Ave Size (nm) [1, 10]: 73.52 nm
PDI [1, 10]: 0.015
Z-Ave Size (nm) [1, 10]: 89.83 nm
pKa [2]: 6.32
Encapsulation (%) [3, 10]: 98%

CCCCC/C=C\C/C=C\CCCCCCCC(=O)OCC(COC(=O)CCCCCCC/C=C\C/C=C\CCCCC)OC(=O)CCC(CCCCCCCC)OC(=O)NCC1CCCN1C (centres unmarked) [Compound 35, 2-((4-((((1-methylpyrrolidin-2-yl)methyl)carbamoyl)oxy)dodecanoyl)oxy) propane-1,3-diyl (9Z,9′Z,12Z,12′Z)-bis(octadeca-9,12-dienoate)]
Serum TTR % TSS (mouse TTR; [6]): 104.30 % TSS
Serum TTR % TSS (mouse TTR; [7]): 99.13 % TSS
Num Ave Size (nm) [1, 8]: 62.82 nm
PDI [1, 8]: 0.068
Z-Ave Size (nm) [1, 8]: 81.51 nm
pKa [2]: 6.35
Encapsulation (%) [3, 8]: 99%

CCCCC/C=C\C/C=C\CCCCCCCC(=O)OCC(COC(=O)CCC(OCCCCCCCC)OCCCCCCCC)COC(=O)OCCCN(CC)CC (centres unmarked) [Compound 49, 3-((4,4-bis(octyloxy)butanoyl)oxy)-2-((((3-(diethylamino)propoxy)carbonyl)oxy)methyl)propyl (9Z,12Z)-octadeca-9,12-dienoate, reference compound]
Serum TTR (mouse TTR; Table 7, G00282, CD-1 female mice i.v., dose 0.1 mpk): 254 µg/mL
Serum TTR % TSS (mouse TTR; Table 7, G00282, CD-1 female mice i.v., dose 0.1 mpk, percentage of vehicle control): 31% TSS
Serum TTR (mouse TTR; Table 7, G00282, CD-1 female mice i.v., dose 0.3 mpk): 40 µg/mL
Serum TTR % TSS (mouse TTR; Table 7, G00282, CD-1 female mice i.v., dose 0.3 mpk, percentage of vehicle control): 5% TSS
Num Ave Size (nm) [1, 14]: 69.84 nm
PDI [1, 14]: 0.05
Z-Ave Size (nm) [1, 14]: 87.92 nm
Num Ave Size (nm) [1, 11]: 73.13 nm
PDI [1, 11]: 0.014
Z-Ave Size (nm) [1, 11]: 88.36 nm
Num Ave Size (nm) [1, 15]: 63.19 nm
PDI [1, 15]: 0.03
Z-Ave Size (nm) [1, 15]: 77.07 nm
Num Ave Size (nm) [1, 10]: 66.26 nm
PDI [1, 10]: 0.026
Z-Ave Size (nm) [1, 10]: 81.83 nm
Num Ave Size (nm) [1, 16]: 65 nm
PDI [1, 16]: 0.03
Z-Ave Size (nm) [1, 16]: 83.00 nm
Num Ave Size (nm) [1, 17]: 74 nm
PDI [1, 17]: 0.02
Z-Ave Size (nm) [1, 17]: 90.00 nm
Num Ave Size (nm) [1, 12]: 63.19 nm
PDI [1, 12]: 0.026
Z-Ave Size (nm) [1, 12]: 77.07 nm
Num Ave Size (nm) [1, 8]: 69.01 nm
PDI [1, 8]: 0.026
Z-Ave Size (nm) [1, 8]: 84.47 nm
Num Ave Size (nm) [1, 18]: 70 nm
PDI [1, 18]: 0.04
Z-Ave Size (nm) [1, 18]: 87 nm
Num Ave Size (nm) [1, 19]: 75 nm
PDI [1, 19]: 0.04
Z-Ave Size (nm) [1, 19]: 90 nm
Num Ave Size (nm) [1, 9]: 69.51 nm
PDI [1, 9]: 0.007
Z-Ave Size (nm) [1, 9]: 84.93 nm
Num Ave Size (nm) [1, 20]: 69.75 nm
PDI [1, 20]: 0.011
Z-Ave Size (nm) [1, 20]: 83.63 nm
Num Avg Size (nm) [1, 13]: 69.85 nm
PDI [1, 13]: 0.028
Z-Avg Size (nm) [1, 13]: 87.84 nm
Number Average [nm] [1, 21]: 74.82 nm
PDI [1, 21]: 0.015
Z-Ave Size (nm) [1, 21]: 93.14 nm
Encapsulation (%) [3, 14]: 98%
Encapsulation (%) [3, 11]: 98%
Encapsulation (%) [3, 15]: 93%
Encapsulation (%) [3, 10]: 98%
Encapsulation (%) [3, 16]: 98%
Encapsulation (%) [3, 17]: 99%
Encapsulation (%) [3, 12]: 93%
Encapsulation (%) [3, 8]: 98%
Encapsulation (%) [3, 18]: 98%
Encapsulation (%) [3, 19]: 98%
Encapsulation (%) [3, 9]: 98%
Encapsulation (%) [3, 20]: 99%
Encapsulation (%) [3, 13]: 97%
% E [3, 21]: 98%
